From PubChem BioAssay AID1963435 (Molecular Pharmacology Branch, DTP, NCI, 2024)
Blank lines part the entries; values can stand above or below the compound they belong to.

Test system: PANC-1 complex spheroid growth, percent test/control
Assay: Anticancer human tumor PANC-1 cell line growth inhibition [Asc];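 also: spheroids exposed to agents for 7 days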;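 as to viability, T/C: percent viability relative to DMSO vehicle wells taken as 100%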
Conditions: for viability, T/C: stronger effect = lower value
Description: Multicellular complex tumor spheroid response to apoptosis pathway targeting inhibitors Alrizomadlin, Pelcitoclax, and Dasminapant in combination with a variety of drugs and investigational agents in selected tumor cell lines
The MDM2 inhibitor alrizomadlin, the Bcl-2/Bcl-xL inhibitor pelcitoclax, and the IAPs inhibitor dasminapant were evaluated both individually and in combination with standard of care and investigational anticancer small molecules within a complex spheroid model of solid tumors. . Complex spheroids include a stromal component modeled by human endothelial cells (HUVEC) and fibroblasts modeled by human mesenchymal stem cells (MSCs). The concentration ranges selected for each drug and investigational agent were based upon clinically achievable concentrations if the clinical Cmax of the agent was known.
Compounds. The drugs and investigational agents: alrizomadlin (APG-115; NSC831270), pelcitoclax (APG-1252; NSC835773), dasminapant (APG-1387;NSC834197), TAK-243 (NSC785004), copanlisib (NSC809693), olaparib (NSC753686), talazoparib (NSC767125), cobimetinib (NSC 768068), eltanexor (KPT-8602, NSC 794443), abemaciclib (NSC 768073), sotorasib (NSC818433), adagrasib (NSC 831453), MRTX-1133 (NSC 836407), Iadademestat (ORY1001, NSC 806812), and RMC-4630 (NSC839698), were obtained from the NCI Developmental Therapeutics Program Chemical Repository. The FDA-approved anticancer drug set is available from the Developmental Therapeutics Program at https://dtp.cancer.gov/organization/dscb/obtaining/available plates.htm. […] The stock solutions were prepared in dimethyl sulfoxide (DMSO, Sigma-Aldrich, St. Louis, MO, cat. D2650) at 800-fold the tested concentration and stored at -70 degrees C prior to their use. All drugs and investigational agents were tested over a range starting from a high concentration at or near the clinical Cmax and decreasing in half-log increments. If the clinical Cmax for an agent had not been determined, the highest concentration tested was 10 microM.
The patient-derived cancer (PDC) cell lines include five colon adenocarcinomas: 186277-243-T-J2-PDC, 616215-338-R-J1-PDC, 439559-082-T-J2-PDC, 463943-066-T-J2-PDC, and 519858-162-T-J1-PDC; three pancreatic carcinomas: 323965-272-R-J2-PDC, 521955-158-R6-J3-PDC, and 521955-158-R2-J5-PDC; two uterine sarcomas: 327498-152-R-J2-PDC and 993429-296-R-J1-PDC; two rhabdomyosarcomas: 755483-174-R-J1-PDC and 772245-204-R-J1-PDC; two soft tissue sarcomas: 126254-015-R-J1-PDC and 494315-158-R-J1-PDC; two malignant fibrous histiocytomas: 317291-083-R-J1-PDC and 596521-263-R-J1-PDC; two breast carcinomas: 171881-019-R-J1-PDC and 885512-296-R-J2-PDC; and one ovarian carcinoma: 6556581-035-R-J-PDC were obtained from the NCI PDMR, (https://pdmr.cancer.gov). The established cell lines HSSY-2 synovial sarcoma (RRID:CVCL 8719), SYO-1 synovial sarcoma (RRID:CVCL_7146), MPNST malignant peripheral neural sheath tumor were obtained from the Sloan Kettering Institute. The following established cell lines were purchased from the American Type Culture Collection (ATCC, Manassas, VA), Sor the received from the NCI repository:, PANC-1 pancreatic carcinoma (CRL-1469, RRID:CVCL_0480), OVCAR-5 ovarian carcinoma (RRID:CVCL_1628), OVCAR-8 ovarian carcinoma (RRID:CVCL_1629), , MCF-7 breast carcinoma (CRL-12584, RRID:CVCL_0031), MDA-MB-231 breast carcinoma (CRL-12532, RRID:CVCL_0062), NCI-H1876 small cell lung carcinoma (CRL-5902, RRID:CVCL_1503), NCI-H510A small cell lung carcinoma (HTB-184, RRID:CVCL_1565), NCI-H1417 (CRL-5869, RRID:CVCL_1469), and NCI-H196 small cell lung carcinoma (CRL-5823, RRID:CVCL_1509). Dr. Peter Houghton (Greehey Children's Cancer Research Institute, University of Texas Health Science Center, San Antonio, TX) provided Rh-18 rhabdomyosarcoma (RRID:CVCL_1659). Pooled donor human umbilical vein endothelial cells (HUVEC, Lonza, cat. CC-2519) and human mesenchymal stem cells (hMSC, Lonza, cat. PT-2501) were purchased from Lonza (Walkersville, MD).
Cell Culture. […]

[1] = curve of first compound, second compound 0.00949 µM
[2] = curve of first compound, second compound 0.03 µM
[3] = curve of first compound, second compound 0.0949 µM
[4] = curve of first compound, second compound 0.3 µM
[5] = curve of first compound, second compound 0.949 µM
[6] = curve of first compound, second compound 3 µM
[7] = second compound 0.00949 µM, first compound 0.0316 µM
[8] = second compound 0.00949 µM, first compound 0.1 µM
[9] = second compound 0.03 µM, first compound 0.0316 µM
[10] = second compound 0.03 µM, first compound 0.1 µM
[11] = second compound 0.0949 µM, first compound 0.0316 µM
[12] = second compound 0.0949 µM, first compound 0.1 µM
[13] = second compound 0.3 µM, first compound 0.0316 µM
[14] = second compound 0.3 µM, first compound 0.1 µM
[15] = second compound 0.949 µM, first compound 0.0316 µM
[16] = second compound 0.949 µM, first compound 0.1 µM
[17] = second compound 3 µM, first compound 0.0316 µM
[18] = second compound 3 µM, first compound 0.1 µM

IC50 [1]: > 0.1 µM | IC50 [2]: > 0.1 µM | IC50 [3]: > 0.1 µM | IC50 [4]: > 0.1 µM | IC50 [5]: > 0.1 µM | IC50 [6]: > 0.1 µM
Structure (SMILES): NC1CCC(NC2CC2c2ccccc2)CC1 (configuration not stated) + CCN1C(C(=O)NC23CCC(C(=O)O)(CC2)CC3)C(c2cccc(Cl)c2F)C2(C(=O)Nc3cc(Cl)ccc32)C12CCCCC2
viability, T/C (second compound 0.00949 µM, first compound 0.000316 µM): 97.6% | viability, T/C (second compound 0.00949 µM, first compound 0.001 µM): 89% | viability, T/C (second compound 0.00949 µM, first compound 0.00316 µM): 97.2% | viability, T/C (second compound 0.00949 µM, first compound 0.01 µM): 85.9% | viability, T/C [7]: 82% | viability, T/C [8]: 104% | viability, T/C (second compound 0.03 µM, first compound 0.000316 µM): 84.6% | viability, T/C (second compound 0.03 µM, first compound 0.001 µM): 90.1% | viability, T/C (second compound 0.03 µM, first compound 0.00316 µM): 103% | viability, T/C (second compound 0.03 µM, first compound 0.01 µM): 87% | viability, T/C [9]: 91.2% | viability, T/C [10]: 90.1% | viability, T/C (second compound 0.0949 µM, first compound 0.000316 µM): 99.7% | viability, T/C (second compound 0.0949 µM, first compound 0.001 µM): 94.7% | viability, T/C (second compound 0.0949 µM, first compound 0.00316 µM): 93.5% | viability, T/C (second compound 0.0949 µM, first compound 0.01 µM): 95.5% | viability, T/C [11]: 97.7% | viability, T/C [12]: 95.4% | viability, T/C (second compound 0.3 µM, first compound 0.000316 µM): 96.7% | viability, T/C (second compound 0.3 µM, first compound 0.001 µM): 101% | viability, T/C (second compound 0.3 µM, first compound 0.00316 µM): 102% | viability, T/C (second compound 0.3 µM, first compound 0.01 µM): 98.2% | viability, T/C [13]: 102% | viability, T/C [14]: 91% | viability, T/C (second compound 0.949 µM, first compound 0.000316 µM): 109% | viability, T/C (second compound 0.949 µM, first compound 0.001 µM): 115% | viability, T/C (second compound 0.949 µM, first compound 0.00316 µM): 104% | viability, T/C (second compound 0.949 µM, first compound 0.01 µM): 107% | viability, T/C [15]: 97.2% | viability, T/C [16]: 89.2% | viability, T/C (second compound 3 µM, first compound 0.000316 µM): 109% | viability, T/C (second compound 3 µM, first compound 0.001 µM): 112% | viability, T/C (second compound 3 µM, first compound 0.00316 µM): 101% | viability, T/C (second compound 3 µM, first compound 0.01 µM): 110% | viability, T/C [17]: 95.6% | viability, T/C [18]: 110%

IC50 (compound alone, run of 11/07/2022): > 3 µM | IC50 (curve of compound): > 3 µM
Structure (SMILES): CCN1C(C(=O)NC23CCC(C(=O)O)(CC2)CC3)C(c2cccc(Cl)c2F)C2(C(=O)Nc3cc(Cl)ccc32)C12CCCCC2 (configuration not stated)
viability, T/C (compound 0.00949 µM): 103% [middle of 9 runs] | viability, T/C (compound 0.03 µM): 102% [middle of 9 runs] | viability, T/C (compound 0.0949 µM): 103% [middle of 9 runs] | viability, T/C (compound 0.3 µM): 100% [middle of 9 runs] | viability, T/C (compound 0.949 µM): 103% [middle of 9 runs] | viability, T/C (compound 3 µM): 112% [middle of 9 runs]

IC50 [1]: > 10 µM | IC50 [2]: > 10 µM | IC50 [3]: > 10 µM | IC50 [4]: > 10 µM | IC50 [5]: > 10 µM | IC50 [6]: > 10 µM
Structure (SMILES): C=CC(=O)N1CCN(c2nc(=O)n(-c3c(C)ccnc3C(C)C)c3nc(-c4c(O)cccc4F)c(F)cc23)C(C)C1 (configuration not stated) + CCN1C(C(=O)NC23CCC(C(=O)O)(CC2)CC3)C(c2cccc(Cl)c2F)C2(C(=O)Nc3cc(Cl)ccc32)C12CCCCC2
viability, T/C [7]: 98.1% | viability, T/C [8]: 96.8% | viability, T/C (second compound 0.00949 µM, first compound 0.316 µM): 86% | viability, T/C (second compound 0.00949 µM, first compound 1 µM): 98.8% | viability, T/C (second compound 0.00949 µM, first compound 3.16 µM): 90.4% | viability, T/C (second compound 0.00949 µM, first compound 10 µM): 96% | viability, T/C [9]: 101% | viability, T/C [10]: 92.5% | viability, T/C (second compound 0.03 µM, first compound 0.316 µM): 100% | viability, T/C (second compound 0.03 µM, first compound 1 µM): 103% | viability, T/C (second compound 0.03 µM, first compound 3.16 µM): 97.8% | viability, T/C (second compound 0.03 µM, first compound 10 µM): 77.5% | viability, T/C [11]: 111% | viability, T/C [12]: 101% | viability, T/C (second compound 0.0949 µM, first compound 0.316 µM): 97.5% | viability, T/C (second compound 0.0949 µM, first compound 1 µM): 94% | viability, T/C (second compound 0.0949 µM, first compound 3.16 µM): 95.6% | viability, T/C (second compound 0.0949 µM, first compound 10 µM): 91.2% | viability, T/C [13]: 109% | viability, T/C [14]: 95.3% | viability, T/C (second compound 0.3 µM, first compound 0.316 µM): 106% | viability, T/C (second compound 0.3 µM, first compound 1 µM): 110% | viability, T/C (second compound 0.3 µM, first compound 3.16 µM): 93.6% | viability, T/C (second compound 0.3 µM, first compound 10 µM): 93.2% | viability, T/C [15]: 116% | viability, T/C [16]: 107% | viability, T/C (second compound 0.949 µM, first compound 0.316 µM): 96.4% | viability, T/C (second compound 0.949 µM, first compound 1 µM): 103% | viability, T/C (second compound 0.949 µM, first compound 3.16 µM): 94.7% | viability, T/C (second compound 0.949 µM, first compound 10 µM): 93.1% | viability, T/C [17]: 120% | viability, T/C [18]: 115% | viability, T/C (second compound 3 µM, first compound 0.316 µM): 114% | viability, T/C (second compound 3 µM, first compound 1 µM): 121% | viability, T/C (second compound 3 µM, first compound 3.16 µM): 109% | viability, T/C (second compound 3 µM, first compound 10 µM): 102%
